# Results reported in article PMC7475180, “The Arabidopsis TRM61/TRM6 complex is a bona fide tRNA N^1-methyladenosine methyltransferase” (Journal of Experimental Botany, 2020).
# Target: T1, AtTRM61/AtTRM6 complex (AtTRM61-His/AtTRM6-GST) (Arabidopsis thaliana, UniProt F4K6U9)
# T1 construct: gene TRM61; CDSs of AtTRM61 (pET28a+, His tag) and AtTRM6 (pGEX-4T-2, GST tag) co-expressed in E. coli, Ni-NTA purified; tag removal not mentioned; heterodimeric complex; with tRNA (adenine(58)-N(1))-methyltransferase non-catalytic subunit TRM6
# T1 sequence (F4K6U9 1-318): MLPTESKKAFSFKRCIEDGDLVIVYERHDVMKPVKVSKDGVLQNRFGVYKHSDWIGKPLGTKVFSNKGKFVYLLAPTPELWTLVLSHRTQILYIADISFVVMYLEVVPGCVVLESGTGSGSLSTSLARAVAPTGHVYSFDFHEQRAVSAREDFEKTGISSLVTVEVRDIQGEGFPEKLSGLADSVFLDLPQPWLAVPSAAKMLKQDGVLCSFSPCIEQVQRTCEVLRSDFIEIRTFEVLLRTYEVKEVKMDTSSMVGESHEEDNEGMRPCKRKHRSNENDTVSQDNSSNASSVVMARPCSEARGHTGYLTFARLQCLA
# T1 sequence (O80846 1-446 partner): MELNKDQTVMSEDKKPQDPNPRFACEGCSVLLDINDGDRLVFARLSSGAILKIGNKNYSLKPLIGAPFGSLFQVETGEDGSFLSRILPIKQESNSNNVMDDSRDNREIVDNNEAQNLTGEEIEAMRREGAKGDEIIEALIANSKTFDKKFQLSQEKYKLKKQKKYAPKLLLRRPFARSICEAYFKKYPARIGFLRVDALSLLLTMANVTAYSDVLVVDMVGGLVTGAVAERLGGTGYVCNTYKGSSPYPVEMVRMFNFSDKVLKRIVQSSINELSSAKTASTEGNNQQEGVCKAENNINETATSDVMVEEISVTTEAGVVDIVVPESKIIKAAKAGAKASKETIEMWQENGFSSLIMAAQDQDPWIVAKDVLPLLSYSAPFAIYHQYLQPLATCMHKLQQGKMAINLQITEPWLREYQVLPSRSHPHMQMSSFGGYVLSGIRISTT
# Assay: m1A formation on tRNA, anti-m1A immuno-northern blot
# Format: biochemical
# Conditions: methyl donor, 30 mM AdoMet as printed; 150 nM RNA substrate (trm6-506 yeast tRNA or in vitro transcribed Arabidopsis tRNAiMet); 15 nM protein; 30 °C, 30 min
compound,measurement,value
C[S+](CC[C@H](N)C(=O)O)C[C@H]1O[C@@H](n2cnc3c(N)ncnc32)[C@H](O)[C@@H]1O (stereo partly drawn) [S-adenosyl-L-methionine],"m1A formation on tRNA, anti-m1A immuno-northern blot",The purified complex was then incubated with a methyl donor (SAM)
